Values quoted from earlier work in patent US20050266081A1, “Antimicrobial silver hydrogels” (priority 2004, published 2005).

System: skin cell respiration
Conditions: application of 1 to 10 mg/ml of silver; probable factor in the interference of wound healing

For silver, the “inhibition of skin cell respiration” value is listed as 30%.
